# From ChEMBL document CHEMBL1142811, “Design and syntheses of melanocortin subtype-4 receptor agonists. Part 2: discovery of the dihydropyridazinone motif” (Bioorg Med Chem Lett, 2005)
# Target: T1, Melanocortin receptor 4 (Homo sapiens, UniProt P32245)
# Assay: Inhibition of [125I]-NDP- alpha-MSH binding to human melanocortin 4 receptor expressed in CHO cells
# Type: cell-based
# T1 sequence (P32245 whole entry): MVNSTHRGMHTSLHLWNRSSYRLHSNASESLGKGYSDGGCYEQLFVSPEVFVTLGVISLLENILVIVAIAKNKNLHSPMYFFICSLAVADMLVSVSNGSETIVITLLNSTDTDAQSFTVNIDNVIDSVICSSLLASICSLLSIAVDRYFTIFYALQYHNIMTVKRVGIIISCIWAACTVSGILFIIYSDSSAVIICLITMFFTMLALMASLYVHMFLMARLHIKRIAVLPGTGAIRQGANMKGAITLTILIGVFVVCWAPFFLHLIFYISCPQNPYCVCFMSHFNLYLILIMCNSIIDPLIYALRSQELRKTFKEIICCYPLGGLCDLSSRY
row,SMILES,IC50 [nM]
1,COc1ccc(-n2nc(Sc3ccc(Cl)cc3)cc(CC[C@@H](C)NC(=O)[C@H]3CCNC[C@@H]3c3ccc(Cl)cc3Cl)c2=O)cc1,36
2,"COc1ccc(N2N=C(Sc3ccc(Cl)cc3)CC(CC[C@@H](C)NC(=O)C3CNC[C@H]3c3ccc(F)cc3)C2=O)cc1 (single isomer, unassigned; 68) [listing 1 of 2 here]",780
3,COc1ccc(N2N=C(Sc3ccc(Cl)cc3)CC(CC[C@@H](C)NC(=O)[C@H]3CNCC[C@@H]3c3ccc(F)cc3)C2=O)cc1 (stereo in doubt; 25) [listing 1 of 2 here],26
4,COc1ccc(N2N=C(Sc3ccc(Cl)cc3)CC(CC[C@@H](C)NC(=O)[C@@H]3CNCC[C@H]3c3ccc(F)cc3)C2=O)cc1 (stereo in doubt; 60),560
5,COc1ccc(-n2nc(Sc3ccc(Cl)cc3)cc(CC[C@@H](C)NC[C@H]3CNCC[C@@H]3c3ccc(F)cc3)c2=O)cc1,28

# The remaining lines, values ahead:
row,IC50 [nM],SMILES
1,45,COc1ccc(-n2nc(Sc3ccc(Cl)cc3)cc(CC[C@@H](C)NC(=O)[C@H]3CCNC[C@@H]3c3ccc(C#N)cc3)c2=O)cc1
2,4.7,COc1ccc(-n2nc(Sc3ccc(Cl)cc3)cc(CC[C@@H](C)NC(=O)[C@H]3CN(C)CC[C@@H]3c3ccc(F)cc3)c2=O)cc1
3,100,COc1ccc(-n2nc(Sc3ccc(Cl)cc3)cc(CC[C@@H](C)NC(=O)[C@H]3CCNC[C@@H]3c3ccccc3F)c2=O)cc1
4,280,COc1ccc(N2N=C(Sc3ccc(Cl)cc3)CC(CC[C@@H](C)NC(=O)[C@@H]3CCNC[C@H]3c3ccc(F)cc3)C2=O)cc1 (stereo in doubt; 65) [listing 1 of 2 here]

# Target: T1, Melanocortin receptor 4
# Assay: Maximum percentage of cAMP accumulation relative to alpha-MSH at human melanocortin 4 receptor at 10 uM
# Type: functional
row,SMILES,Max [%]
1,COc1ccc(N2N=C(Sc3ccc(Cl)cc3)CC(CC[C@@H](C)NC(=O)[C@@H]3CCNC[C@H]3c3ccc(F)cc3)C2=O)cc1 (stereo in doubt; 64),16
2,COc1ccc(-n2nc(Sc3ccc(Cl)cc3)cc(CC[C@@H](C)NC(=O)[C@H]3CCNC[C@@H]3c3ccccc3)c2=O)cc1,85
3,"COc1ccc(N2N=C(Sc3ccc(Cl)cc3)CC(CC[C@@H](C)NC(=O)C3CNC[C@H]3c3ccc(F)cc3)C2=O)cc1 (single isomer, unassigned; 69)",48
4,COc1ccc(N2N=C(Sc3ccc(Cl)cc3)CC(CC[C@@H](C)NC(=O)[C@H]3CNCC[C@@H]3c3ccc(F)cc3)C2=O)cc1 (stereo in doubt; 25) [listing 2 of 2 here],72
5,COc1ccc(-n2nc(Sc3ccc(Cl)cc3)cc(CC[C@@H](C)NC(=O)[C@H]3CCNC[C@@H]3c3ccc(Cl)cc3Cl)c2=O)cc1,30
6,COc1ccc(N2N=C(Sc3ccc(Cl)cc3)CC(CC[C@@H](C)NC(=O)[C@@H]3CNCC[C@H]3c3ccc(F)cc3)C2=O)cc1 (stereo in doubt; 61),32
7,"COc1ccc(N2N=C(Sc3ccc(Cl)cc3)CC(CC[C@@H](C)NC(=O)C3CNC[C@@H]3c3ccc(F)cc3)C2=O)cc1 (single isomer, unassigned; 66)",90
8,COc1ccc(-n2nc(Sc3ccc(Cl)cc3)cc(CC[C@@H](C)NC[C@H]3CNCC[C@@H]3c3ccc(F)cc3)c2=O)cc1,60

# Other lines, results leading:
row,Max [%],SMILES
1,77,COc1ccc(-n2nc(Sc3ccc(Cl)cc3)cc(CC[C@@H](C)NC(=O)[C@H]3CNCC[C@@H]3c3ccccc3)c2=O)cc1
2,26,"COc1ccc(N2N=C(Sc3ccc(Cl)cc3)CC(CC[C@@H](C)NC(=O)C3CNC[C@H]3c3ccc(F)cc3)C2=O)cc1 (single isomer, unassigned; 68) [listing 2 of 2 here]"
3,33,COc1ccc(N2N=C(Sc3ccc(Cl)cc3)CC(CC[C@@H](C)NC(=O)[C@@H]3CCNC[C@H]3c3ccc(F)cc3)C2=O)cc1 (stereo in doubt; 65) [listing 2 of 2 here]
4,81,COc1ccc(-n2nc(Sc3ccc(Cl)cc3)cc(CC[C@@H](C)NC(=O)[C@H]3CCNC[C@@H]3c3ccc(C#N)cc3)c2=O)cc1
5,100,COc1ccc(N2N=C(Sc3ccc(Cl)cc3)CC(CC[C@@H](C)NC(=O)[C@H]3CCNC[C@@H]3c3ccc(F)cc3)C2=O)cc1 (stereo in doubt; 62)
6,59,COc1ccc(-n2nc(Sc3ccc(Cl)cc3)cc(CC[C@@H](C)NC(=O)[C@H]3CN(C)CC[C@@H]3c3ccc(F)cc3)c2=O)cc1
7,75,COc1ccc(-n2nc(Sc3ccc(Cl)cc3)cc(CC[C@@H](C)NC(=O)[C@H]3CCNC[C@@H]3c3ccccc3F)c2=O)cc1

# Target: T1, Melanocortin receptor 4
# Assay: Effective concentration at human melanocortin 4 receptor in cAMP release assay
# Type: functional
row,SMILES,EC50 [nM]
1,COc1ccc(-n2nc(Sc3ccc(Cl)cc3)cc(CC[C@@H](C)NC(=O)[C@H]3CCNC[C@@H]3c3ccc(Cl)cc3Cl)c2=O)cc1,2400
2,"COc1ccc(N2N=C(Sc3ccc(Cl)cc3)CC(CC[C@@H](C)NC(=O)C3CNC[C@H]3c3ccc(F)cc3)C2=O)cc1 (single isomer, unassigned; 68) [listing 1 of 2 here]",4000
3,COc1ccc(N2N=C(Sc3ccc(Cl)cc3)CC(CC[C@@H](C)NC(=O)[C@H]3CNCC[C@@H]3c3ccc(F)cc3)C2=O)cc1 (stereo in doubt; 25) [listing 1 of 2 here],390
4,COc1ccc(-n2nc(Sc3ccc(Cl)cc3)cc(CC[C@@H](C)NC[C@H]3CNCC[C@@H]3c3ccc(F)cc3)c2=O)cc1,470

# Continued, values first:
row,EC50 [nM],SMILES
1,120,COc1ccc(-n2nc(Sc3ccc(Cl)cc3)cc(CC[C@@H](C)NC(=O)[C@H]3CCNC[C@@H]3c3ccc(C#N)cc3)c2=O)cc1
2,320,COc1ccc(-n2nc(Sc3ccc(Cl)cc3)cc(CC[C@@H](C)NC(=O)[C@H]3CN(C)CC[C@@H]3c3ccc(F)cc3)c2=O)cc1
3,550,COc1ccc(-n2nc(Sc3ccc(Cl)cc3)cc(CC[C@@H](C)NC(=O)[C@H]3CCNC[C@@H]3c3ccccc3F)c2=O)cc1
4,1400,COc1ccc(N2N=C(Sc3ccc(Cl)cc3)CC(CC[C@@H](C)NC(=O)[C@@H]3CCNC[C@H]3c3ccc(F)cc3)C2=O)cc1 (stereo in doubt; 65) [listing 1 of 2 here]
